Results taken from US8969055B2 (priority 2009, dated 2015).
Where two headings read alike, the source gives them in different places.

Legend:
4KO E. coli strain = details: for E. coli Growth Rate (μ): 4KO E. coli, BFM + betaine, 30° C.
Procedure: From a frozen vial, 25 mL of seed culture was grown in Difco LB broth, Miller medium, purchased from BD Laboratories (Becton & Dickinson and Company, Sparks, Md., 21152, USA) at 30° C., 200 RPM. […] Samples were withdrawn at defined time points to monitor biomass growth as measured by OD600. Growth rates were calculated from the biomass time profiles by fitting exponential growth rate equations.

[1] = Example 3 fermentation, oleyl alcohol
Procedure: Filter sterilized solutions of ampicillin, thiamine hydrochloride, and glucose were added to the fermentor medium, post sterilization, to a final concentration of 100 mg/L, 5 mg/L and 20 g/L respectively. Fermentations were run using a 1 L autoclavable bioreactor, Bio Console ADI 1025 (Applikon, Inc, Holland) with a working volume of 900 mL. The temperature was maintained at 30° C. during the entire fermentation and the pH was maintained at 6.8 using ammonium hydroxide. Following inoculation of the sterile fermentation medium with seed culture (2-10 vol %), the fermentor was operated aerobically at a 30% dissolved oxygen (DO) set point with 0.3 vvm of air flow by automatic control of the agitation rate (rpm). […] Four hours post induction, fermentation conditions were switched to microaerobic conditions by decreasing the airflow to 0.13 slpm and setting the DO set point to 3-5%. […] Glucose was added as a bolus (50 wt % stock solution) to the fermentor on a need basis to keep levels of glucose between 20 g/L and 2 g/L.
Glucose levels were monitored using HPLC and YSI as described above herein.

[2] = oleyl alcohol/BFM, 30° C.
Excerpt: The aqueous and organic phases in each flask were separated by decantation.
Each data point corresponding to a specified level of electrolyte as shown in Table 3 and Table 4 was repeated twice and values for Kp reported as the average of the two flasks.

[3] = Activity of enzyme expressed from sadB gene in cell-free extracts of Mach1/pTrc99a::sadB; assay type: biochemical, Achromobacter xylosoxidans; details: isobutyraldehyde as the standard
Procedure: The sadB coding region was then cloned into the vector pTrc99a (Amann et al., Gene 69: 301-315, 1988). The pCR4Blunt::sadB was digested with EcoRI, releasing the sadB fragment, which was ligated with EcoRI-digested pTrc99a to generate pTrc99a::sadB. This plasmid was transformed into E. coli Mach 1 cells and the resulting transformant was named Mach1/pTrc99a::sadB. The activity of the enzyme expressed from the sadB gene in these cells was determined to be 3.5 mmol/min/mg protein in cell-free extracts when analyzed using isobutyraldehyde as the standard.

O=S(=O)([O-])[O-].[Na+].[Na+] [Na2SO4, Sodium sulfate]
drop in growth rate (4KO E. coli strain; 1M salt concentration): greater than 80% | E. coli Growth Rate (μ) (4KO E. coli strain; Na2SO4 added 0.03 mole/L, total salts 0.17 moles/L): 0.79 h⁻¹ | E. coli Growth Rate (μ) (4KO E. coli strain; Na2SO4 added 0.07 mole/L, total salts 0.21 moles/L): 0.79 h⁻¹ | E. coli Growth Rate (μ) (4KO E. coli strain; Na2SO4 added 0.15 mole/L, total salts 0.29 moles/L): 0.79 h⁻¹ | E. coli Growth Rate (μ) (4KO E. coli strain; Na2SO4 added 0.22 mole/L, total salts 0.36 moles/L): 0.74 h⁻¹ | E. coli Growth Rate (μ) (4KO E. coli strain; Na2SO4 added 0.29 mole/L, total salts 0.43 moles/L): 0.69 h⁻¹ | E. coli Growth Rate (μ) (4KO E. coli strain; Na2SO4 added 0.44 mole/L, total salts 0.58 moles/L): 0.60 h⁻¹ | E. coli Growth Rate (μ) (4KO E. coli strain; Na2SO4 added 0.67 mole/L, total salts 0.81 moles/L): 0.55 h⁻¹ | E. coli Growth Rate (μ) (4KO E. coli strain; Na2SO4 added 1.00 mole/L, total salts 1.14 moles/L): 0.14 h⁻¹ | E. coli Growth Rate (μ) (4KO E. coli strain; Na2SO4 added 1.33 mole/L, total salts 1.47 moles/L): Negligible growth | E. coli Growth Rate (μ) (4KO E. coli strain; Na2SO4 added 2.00 mole/L, total salts 2.14 moles/L): Negligible Growth | loss of growth rate compared to no electrolyte control (4KO E. coli strain; about 0.67 M Na2SO4 (total salt level of 0.81 M)): 30%

Isobutanol
Kp [Conc in OA phase]/[Conc in Aq Phase] ([1]; Na2SO4 added 0 moles/L, total salts 0.05 moles/L): 3.1 | Kp [Conc in OA phase]/[Conc in Aq Phase] ([1]; Na2SO4 added 0.28 moles/L, total salts 0.33 moles/L): 4.5 | Kp [Conc in OA phase]/[Conc in Aq Phase] ([1]; Na2SO4 added 0.42 moles/L, total salts 0.47 moles/L): 5.4 | Kp ([2]; Na2SO4 added 0.00 moles/L, total salts 0.14 moles/L): 4.80 | Kp ([2]; Na2SO4 added 0.03 moles/L, total salts 0.17 moles/L): 5.03 | Kp ([2]; Na2SO4 added 0.07 moles/L, total salts 0.21 moles/L): 5.25 | Kp ([2]; Na2SO4 added 0.15 moles/L, total salts 0.29 moles/L): 5.78 | Kp ([2]; Na2SO4 added 0.22 moles/L, total salts 0.36 moles/L): 6.37 | Kp ([2]; Na2SO4 added 0.29 moles/L, total salts 0.43 moles/L): 7.12 | Kp ([2]; Na2SO4 added 0.44 moles/L, total salts 0.58 moles/L): 8.34 | Kp ([2]; Na2SO4 added 0.67 moles/L, total salts 0.81 moles/L): 10.50 | Kp ([2]; Na2SO4 added 1.00 moles/L, total salts 1.14 moles/L): 15.95 | Kp ([2]; Na2SO4 added 1.33 moles/L, total salts 1.47 moles/L): 24.68 | Kp ([2]; Na2SO4 added 2.00 moles/L, total salts 2.14 moles/L): 60.99 | Kp ([2]; NaCl added 0.00 moles/L, total salt 0.14 moles/L): 4.87 | Kp ([2]; NaCl added 0.01 moles/L, total salt 0.15 moles/L): 4.87 | Kp ([2]; NaCl added 0.04 moles/L, total salt 0.18 moles/L): 4.89 | Kp ([2]; NaCl added 0.07 moles/L, total salt 0.21 moles/L): 4.95 | Kp ([2]; NaCl added 0.11 moles/L, total salt 0.25 moles/L): 5.00 | Kp ([2]; NaCl added 0.14 moles/L, total salt 0.28 moles/L): 5.00 | Kp ([2]; NaCl added 0.21 moles/L, total salt 0.35 moles/L): 5.22 | Kp ([2]; NaCl added 0.33 moles/L, total salt 0.47 moles/L): 5.04 | Kp ([2]; NaCl added 0.67 moles/L, total salt 0.81 moles/L): 5.91 | Kp ([2]; NaCl added 1.00 moles/L, total salt 1.14 moles/L): 6.88 | Kp ([2]; NaCl added 1.33 moles/L, total salt 1.47 moles/L): 8.06

B1: enzyme expressed from the sadB gene: butanol dehydrogenase from Achromobacter xylosoxidans (protein SEQ ID NO: 10) (protein)
chain: MKALVYHGDHKISLEDKPKPTLQKPTDVVVRVLKTTICGTDLGIYKGKNPEVADGRILGHEGVGVIEEVGESVTQFKKGDKVLISCVTSCGSCDYCKKQLYSHCRDGGWILGYMIDGVQAEYVRIPHADNSLYKIPQTIDDEIAVLLSDILPTGHEIGVQYGNVQPGDAVAIVGAGPVGMSVLLTAQFYSPSTIIVIDMDENRLQLAKELGATHTINSGTENVVEAVHRIAAEGVDVAIEAVGIPATWDICQEIVKPGAHIANVGVHGVKVDFEIQKLWIKNLTITTGLVNTNTTPMLMKVASTDKLPLKKMITHRFELAEIEHAYQVFLNGAKEKAMKIILSNAGAA
modifications: Achromobacter xyloxidans
activity of the enzyme [3]: 3.5 mmol/min/mg protein
